Results as given in patent publication US11603391B2, “CATH2 derivatives” (Universiteit Utrecht Holding B.V., priority 2014, dated 2023).
No end group written: not given here.

Assays:
HD11 cells [1] = experiment: Uptake of Alexa-Fluor 488 labeled ODN-2006 by HD11 cells (flow cytometry); type: cell-based, chicken; settings: 5 μM peptide; 2.5 nM Alexa-Fluor 488 labeled ODN-2006; 4 h
Method: (§1) FIG. 13A-13B—CMAP27 derived peptides enhance DNA uptake and DNA-induced activation. A) HD11 cells were stimulated during 4 h with 2.5 nM Alexa-Fluor 488 labeled ODN-2006 in the absence and presence of CMAP27 derived peptides (5 μM), after which DNA uptake was analyzed by flow cytometry. B) Supernatants of HD11 cells stimulated for longer time (17 h) under these same conditions were collected and used for determination of nitric oxide production using the Griess assay. Data represents means±SEM from 3-4 independent experiments.
(§2) To study effects of peptides on the uptake of DNA, HD11 cells were seeded 3×10^5 cells in 24-wells plates, stimulated during 4 h with 2.5 nM Alexa-Fluor 488 labeled ODN-2006 in the absence and presence of CMAP27 derived peptides (5 μM), after which DNA uptake was analyzed by flow cytometry. Activation of HD11 cells was examined by collecting supernatants after 17 h under the same conditions and determination of nitric oxide production.

HD11 cells [2] = experiment: DNA-induced nitric oxide production in HD11 cells (Griess assay); type: cell-based, chicken; settings: 5 μM peptide; 2.5 nM ODN-2006; 17 h
Method: as §1, §2

J774.A1 cells = experiment: Inhibition of APEC O78-induced TNFα production by macrophages (ELISA); type: cell-based, murine; settings: 5 μM peptide, 2 h, DMEM/10% FCS; for inhibition of TNFα production induced by heat-killed bacteria: 3×10^5 CFU/ml heat-killed APEC O78; for inhibition of TNFα production induced by live bacteria: 3×10^5 CFU/ml live APEC O78
Method: (§3) FIG. 9A-9C—Antibacterial activity of CMAP27 derived peptides in vitro against an avian pathogenic Escherichia coli O78 (APEC O78) field isolate. A) Antibacterial activity of peptides (5 μM) against APEC O78 (2×10^6 CFU/ml) in 50% Mueller Hinton broth using colony count assays. B) Antibacterial activity of peptides (5 μM) against APEC O78 (3×10^5 CFU/ml) in DMEM containing 10% fetal calf serum (FCS) using colony count assays. C) TNFα production by J774.A1 cells (ELISA) after 2 h incubation at 37° C. with live or heat-killed APEC O78 (3×10^5 CFU/m) in DMEM/10% FCS, in the presence or absence of 5 μM peptide. Data represents means±SEM from 3 independent experiments.
Peptide-mediated inhibition of macrophage activation induced by live or heat-killed APEC O78, was examined using J774.A1 cells, a murine macrophage cell line. For this purpose, J774.A1 cells (150,000 cells/well) cultured in DMEM containing 10% FCS were exposed during 2 h at 37° C. to 3×10^5 CFU/ml APEC O78 with or without 5 μM peptide, after which supernatants were collected and used to determine TNFα production (ELISA).

HD11 cells [3] = experiment: Neutralization of LPS-induced nitric oxide production in HD11 cells (Griess assay); type: cell-based, chicken; settings: 20 μM peptide pre-incubated with 50 ng/ml LPS; 24 h
Method: (§4) FIG. 11A-11B—Neutralization of lipopolysaccharide-induced interleukin-1β induction and nitric oxide production in HD11 cells by CMAP27 derived peptides. HD11 cells were seeded in 96 wells tissue culture treated plates (2×10^5 cell/mL) in RPMI-1640/10% FCS. Final concentrations of 50 ng/ml LPS were pre-incubated with or without 20 μM peptide for 30 min at 37° C. (5% CO2), applied to the cells and incubated for 4 h and 24 h. A) Transcription levels of interleukin-1 were determined by real time PCR (4 h only). B) Supernatants were collected for the determination of nitric oxide production (24 h incubations only) using the Griess assay. Significance levels: *P<0.05, **P<0.01, ***P<0.001. Data represents means±SEM from 3-4 independent experiments.
as §4, with “FIG. 12A-12B—Substitution” for “FIG. 11A-11B—Neutralization”, “of phenylalanine residues by tryptophan enhances the” for “of lipopolysaccharide-induced interleukin-1β induction and nitric oxide production”, “in vitro LPS neutralization capacity of” for “in HD11 cells by”, “h or” for “h and”
(§5) HD11 cells were seeded in 96 wells tissue culture treated plates (2×10^5 cell/mL) in RPMI-1640/10% FCS. Final concentrations of 50 ng/ml Salmonella minnesota LPS were pre-incubated with or without 20 μM peptide for 30 min at 37° C. (5% CO2), applied to the cells and incubated for 4 h and 24 h. A) Transcription levels of interleukin-1 were determined by real time PCR (4 h only). B) Supernatants were collected for the determination of nitric oxide production (24 h incubations only) using the Griess assay.

[4] = test system: avian pathogenic Escherichia coli O78 (APEC O78) field isolate; experiment: Antibacterial colony count assay in DMEM containing 10% fetal calf serum; type: cell-based; settings: 5 μM peptide, 3×10^5 CFU/ml, 2 h at 37° C., DMEM/10% FCS
Method: as §3
To test if peptides would be able to inhibit bacteria under more challenging conditions, e.g. in the presence of salts and serum proteins, APEC O78 was incubated with peptide in DMEM medium containing 10% fetal calf serum. In brief, bacterial survival was estimated by incubating 3×10^5 CFU/ml APEC O78 during 2 h at 37° C. in DMEM/10% FCS in the presence or absence of 5 μM peptide, after which serial dilutions were made, spread on agar media and colonies were enumerated after 24 h incubation at 37° C.

HD11 cells [5] = experiment: Neutralization of LPS-induced interleukin-1β transcription in HD11 cells (real time PCR); type: cell-based, chicken; settings: 20 μM peptide pre-incubated with 50 ng/ml LPS; 4 h
Method: as §4
as §4, with “FIG. 12A-12B—Substitution” for “FIG. 11A-11B—Neutralization”, “of phenylalanine residues by tryptophan enhances the” for “of lipopolysaccharide-induced interleukin-1β induction and nitric oxide production”, “in vitro LPS neutralization capacity of” for “in HD11 cells by”, “h or” for “h and”
as §5

HD11 cells [6] = experiment: Chemokine induction in HD11 cells (real time PCR); type: cell-based, chicken; settings: 20 μM peptide
Method: FIG. 10—Chemokine induction by CMAP27 derived peptides in HD11 cells. HD11 cells were seeded in 96 wells tissue culture treated plates (2×10^5 cell/mL) in RPMI-1640/10% FCS and incubated at 37° C. (5% CO2) with peptide (20 μM) supplemented medium during 4 h (open bars) or 24 h (closed bars). Transcription levels of interleukin-1β, IL-8 (CXCLi2), monocyte chemotactic protein-3 (MCP-3) and RANTES (CCLi4) were determined by real time PCR. Significance levels: *P<0.05, **P<0.01, ***P<0.001. Data represents means±SEM from 3-4 independent experiments.
HD11 cells, a chicken macrophage cell line, were seeded in 96 wells tissue culture treated plates (2×10^5 cell/mL) in RPMI-1640/10% FCS and incubated at 37° C. (5% CO2) with peptide (20 μM) supplemented medium during 4 h or 24 h. Transcription levels of interleukin-1β, -8 (CXCLi2), monocyte chemotactic protein-3 (MCP-3) and RANTES (CCLi4) were determined by real time PCR.

CMAP1-21-NH2: C-terminally truncated CMAP27 derivative, residues 1-21
uptake of ODN-2006 by HD11 cells (HD11 cells [1]): enhanced the uptake | DNA-induced nitric oxide production (HD11 cells [2]): increasing | inhibition of TNFα production induced by heat-killed bacteria (J774.A1 cells): substantially inhibited | inhibition of TNFα production induced by live bacteria (J774.A1 cells): substantially inhibited | LPS-induced NO production blocked (HD11 cells [3]): 78.9% | inhibition of bacterial growth (antibacterial activity, in words) [4]: substantially inhibited | LPS-induced IL-1β expression blocked (HD11 cells [5]): 93.5%

CMAP4-21-NH2: N-terminally truncated variant of CMAP1-21 (RFLRKIRRFRPKVTITIQ-NH2)
uptake of ODN-2006 by HD11 cells (HD11 cells [1]): enhanced the uptake | DNA-induced nitric oxide production (HD11 cells [2]): increasing | LPS-induced NO production blocked (HD11 cells [3]): 51% | inhibition of bacterial growth (antibacterial activity, in words) [4]: substantially inhibited | LPS-induced IL-1β expression blocked (HD11 cells [5]): 80.5%

CMAP7-21-NH2: N-terminally truncated variant of CMAP1-21, 15 amino acid residues (RKIRRFRPKVTITIQ-NH2)
uptake of ODN-2006 by HD11 cells (HD11 cells [1]): enhanced the uptake | induction of CXCLi2/IL-8 transcription (HD11 cells [6]; 4 h or 24 h): maintained a capacity to induce | induction of MCP-3 transcription (HD11 cells [6]; 4 h or 24 h): maintained a capacity to induce | DNA-induced nitric oxide production (HD11 cells [2]): increasing | inhibition of TNFα production induced by heat-killed bacteria (J774.A1 cells): inhibited to some extent | inhibition of bacterial growth (antibacterial activity, in words) [4]: lacking antibacterial activity | LPS-neutralizing activity (block of LPS-induced IL-1β expression, in words) (HD11 cells [5]): lack LPS-neutralizing activity

RFGRFLRKIRRFRPKVTITIQGSARF-NH2 [CMAP1-26-NH2]
uptake of ODN-2006 by HD11 cells (HD11 cells [1]): enhanced the uptake | induction of CXCLi2/IL-8 transcription (HD11 cells [6]; 4 h or 24 h): induce transcription | induction of MCP-3 transcription (HD11 cells [6]; 4 h or 24 h): induce transcription | induction of proinflammatory cytokine IL-1β transcription (HD11 cells [6]; 4 h or 24 h): not induced | induction of CCLi4/RANTES transcription (HD11 cells [6]; prolonged stimulation (24 h) needed): induce transcription | DNA-induced nitric oxide production (HD11 cells [2]): increasing | inhibition of TNFα production induced by heat-killed bacteria (J774.A1 cells): substantially inhibited | inhibition of TNFα production induced by live bacteria (J774.A1 cells): substantially inhibited | LPS-induced NO production blocked (HD11 cells [3]): 96.2% | inhibition of bacterial growth (antibacterial activity, in words) [4]: substantially inhibited | surviving bacteria ([4]; detection limit): < 100 cells/ml | LPS-induced IL-1β expression blocked (HD11 cells [5]): 90.8%
